Assay results taken from US11291683B2, “Bilayer tablets of B vitamins and process for preparing the same” (Access Business Group International LLC, priority 2016, dated 2022).

Key:
[1] = cited from earlier work
[2] = Dissolution of bilayer time release multi-B vitamin tablets, USP Apparatus 2 (paddle), HPLC; format: physicochemical
Protocol: To investigate the effect of basic yeast on the dissolution profile of folic acid from vitamin B time release tablet, five formulas (Table 2) with different amounts of yeast were tested. The amount of yeast in the modified release layer was kept constant at 30 mg and included at least 15% hydroxypropyl methylcellulose (which acts as a controlled-release polymer).
Dissolution testing was performed using a qualified Sotax dissolution tester operated as USP Apparatus 2 (paddle) at 75 rpm and at 37±0.5° C. The media used for dissolution was different for different B vitamins and was selected to minimize degradation of these vitamins for the length of the study i.e. 8 hours. Each dissolution test was performed with 6 tablets. Sample aliquots were collected at 2, 4, 6, and 8 hour and filtered through 0.45-μm Millex-HV syringe filters, and analyzed by HPLC for dissolution samples.

[3] = USP <711> in vitro dissolution of Nutrilite Vitamin B formulation NF6853; format: physicochemical
Description: The USP requirement for instant release vitamins is for not less than 75% of label claim to be released within one hour.

Row | Structure (SMILES) | Solubility in Water (Per 100 ml water) [1] | further results
1 | O=C(O)CCCC[C@@H]1SC[C@@H]2NC(=O)N[C@@H]21 [Biotin, biotin] | 0.022 g per 100 ml water | predicted release profile from modified release matrix ([2]; predicted from release of folic acid and thiamine and solubility order, biotin was not analyzed): intermediate release profile
2 | Nc1nc2ncc(CNc3ccc(C(=O)N[C@@H](CCC(=O)O)C(=O)O)cc3)nc2c(=O)[nH]1 [Folic Acid, folic acid] | 0.016 g per 100 ml water | –
3 | NC(=O)c1cccnc1 [Niacinamide (B3), niacinamide] | 69.1 g per 100 ml water | –
4 | Cc1ncc(CO)c(CO)c1O [Pyridoxine (B6), pyridoxine] | 30.8 g per 100 ml water | –
5 | Cc1cc2nc3c(=O)[nH]c(=O)nc-3n(C[C@H](O)[C@H](O)[C@H](O)CO)c2cc1C [Riboflavin (B2), riboflavin] | 0.010 g per 100 ml water | release of riboflavin (B2) within an hour ([3]; in vitro dissolution, meets USP requirement of not less than 75% of label claim within one hour): complete release; % release (input) ([3]; instant release layer of NF6853, 1 hour, cumulative release based on input): 77.12%; % release (LC) ([3]; instant release layer of NF6853, 1 hour, cumulative release based on label claim): 104%; release from the immediate release layer, % of the label claim ([2]; bi-layer tablet, immediate release layer): around 104%
